According to publication PMC6476888, “Design and synthesis of anticancer 1-hydroxynaphthalene-2-carboxanilides with a p53 independent mechanism of action” (Scientific Reports, 2019):
Where “and” joins values, the source holds several entries; their conditions need not be identical. Identical values can stand only once. Entries after “also recorded” stand apart in the source; their conditions may differ.

How the values were obtained:
[1] = test system: CT-DNA; assay: Spectrophotometric DNA intercalation assay; format: binding, calf; settings: for Changes in absorbance: bound to CT-DNA (18 µM), 1.5 h 37 °C, Tris-HCl pH 7.9; for % hypochromism / Δε: bound to CT-DNA, for CP-31398 first value (312 nm band); for red shift: wavelengths of maximum absorption, individual vs DNA-bound compound
Excerpt: The fused aromatic rings of the naphthalene moiety and halogen substituents in aniline may guarantee good intercalating properties[71],[72]. On the other hand, the intercalation of DNA may explain the high activity against both the wild-type and p53 mutants as was reported for a series of styrylquinolines. Binding to DNA causes the bases to mismatch or cleave, which results in the arrest of the cell cycle and apoptosis. The effectiveness of the p53 system is one of the most important factors in the response to therapy. We tested the intercalating properties of the selected compounds in a spectrophotometric assay on calf-thymus DNA. The absorption spectra of the tested compounds in the absence and presence of CT-DNA are presented in Figure S1 Supplementary Information and the spectral properties with doxorubicine and CP-31398 are summarized in Table 2.
For the DNA binding studies, Calf-thymus DNA (CT-DNA) was purchased from Sigma- Aldrich. The lyophilized CT-DNA was dissolved in 10 mM Tris-HCl, pH 7.9, mixed gently and left overnight at 4 °C. The purity of the CT-DNA solution was determined by measuring the ratio of UV absorbance at 260 and 280 nm. […] Then, the concentration of CT-DNA was determined from the absorbance at 260 nm using an extinction coefficient of 6600 M^−1cm^−1. The tested compounds including DOX and CP-31398 were dissolved to a concentration of 8.35 mM in DMSO, which was then used as the stock solution for preparing the various concentrations (25, 12.5, 6 and 3 µM) in 1 mL in 10 mM of Tris-HCl (pH 7.9). Afterwards, 18 µM CT-DNA was added to the prepared solutions, which were incubated for 1.5 h at 37 °C with occasional vortexing. The absorption spectra were measured using a Hitachi U-2900 spectrophotometer in the range of 200–500 nm. All absorption spectra were imported into OriginPro 8.0 and compared.

[2] = test system: NHDF; assay: Cytotoxicity (MTS, 72 h) against normal human fibroblasts; format: cell-based; settings: for IC50: Homo sapiens, NHDF, MTS, 72 h incubation

Compound | Changes in absorbance [1] | % hypochromism [1] | Δε [1] | red shift [1] | IC50 [2] | selectivity index ([2]; cytotoxicity against the normal cell line vs HCT116)
O=C(Nc1ccc(F)c(Cl)c1)c1ccc2ccccc2c1O [5s] | hypochromism | 6.5% | 255.6 M⁻¹ cm⁻¹ | 2 nm | > 25 µM | > 30
O=C(Nc1cc(C(F)(F)F)cc(C(F)(F)F)c1)c1ccc2ccccc2c1O [7f] | rather low hypochromic effect; also recorded: hypochromism | 5.7% | 244.4 M⁻¹ cm⁻¹ | no wavelength shift and 0 nm | 3.55 ± 0.76 µM | 
O=C(Nc1cc(C(F)(F)F)cc(C(F)(F)F)c1Cl)c1ccc2ccccc2c1O [5u] | hypochromism | 14% | 922.2 M⁻¹ cm⁻¹ | small red-shift and 2 nm | 16.3 ± 1.28 µM | 
